Data from US6395726B1, “3,6-disubstituted penam sulfone derivatives” (priority 1999, dated 2002).
Like-named read-outs stand apart in the source and are kept apart here. Marks after values point to notes of the source that are not given here.

What was measured:
[1] = target: AmpC β-lactamase (UniProt P18539); format: biochemical; conditions: read-out: IC50 (nM) AmpC
[2] = system: E. coli (TEM-1, Class A); test: Microbiological assay, broth MIC in combination with piperacillin; format: cell-based; conditions: for MIC (μg/ml; 1:1) E. coli: piperacillin:inhibitor ratio 1:1, broth
Description: (§1) Representative compounds according to the present invention were tested in a microbiological assay in combination with the penicillin antibiotic piperacillin. The enhanced combined synergestic antibacterial activity is representative of the β-lactamase inhibitory properties of the compounds of the present invention. In these tests, minimum inhibitory […] (MIC's) are determined in broth using several two-fold dilutions with a 1:1 ratio of piperacillin to inhibitor (N. A. Kuck, N. V. Jacobus, P. J. Peterson, W. J. Weiss, and R. T. Testa, Antibiotic Agents and Chemotherapy, 33:1964-1969 (1989)).

[3] = system: S. marcescens (AmpC, Class C); test: as above; format: cell-based; conditions: for MIC (μg/ml; 1:1) S. marcescens: piperacillin:inhibitor ratio 1:1
Description: as §1

[4] = target: TEM-1 β-lactamase (Escherichia coli, UniProt P62593); test: β-lactamase inhibition, spectrophotometric, nitrocefin substrate; format: biochemical
Chain of TEM-1 β-lactamase (P62593 24-286 limits assumed): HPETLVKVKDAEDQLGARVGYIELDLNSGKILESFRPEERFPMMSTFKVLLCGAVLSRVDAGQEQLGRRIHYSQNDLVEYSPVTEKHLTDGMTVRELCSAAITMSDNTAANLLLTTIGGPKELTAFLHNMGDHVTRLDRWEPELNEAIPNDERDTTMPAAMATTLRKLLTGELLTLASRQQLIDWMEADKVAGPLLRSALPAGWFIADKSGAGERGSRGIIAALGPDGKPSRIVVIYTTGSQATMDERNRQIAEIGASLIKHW

[5] = 10 minute preincubation of enzyme with inhibitor at 25° C., nitrocefin substrate, read-out: IC50 (nM) TEM-1
[6] = 10 minute preincubation of enzyme with inhibitor at 25° C., nitrocefin substrate

| SMILES | IC50 [1] [nM] | MIC (μg/ml; 1:1) E. coli ([2]; strain GC6265, TEM-1 (Class A)) [µg/mL] | MIC (μg/ml; 1:1) S. marcescens ([3]; strain GC4132, AmpC (Class C)) [µg/mL] | IC50 [4, 5] [nM] | IC50 [1, 6] [nM] | IC50 [4] [nM] | other results |
| --- | --- | --- | --- | --- | --- | --- | --- |
| C[C@]1(Cn2ccnn2)[C@H](C(=O)O)N2C(=O)C[C@H]2S1(=O)=O [Tazobactam, reference compound] | 47700 | 2 | 32 |  |  |  |  |
| C[C@]1(/C=C/C#N)[C@H](C(=O)O)N2C(=O)[C@@H](CO)[C@H]2S1(=O)=O [Example 2 (trans), (E)-(2S,3S,5R,6R)-6-Hydroxymethyl-3-methyl-3-(3-nitrilo-propenyl)-4,4,7-trioxo-4-lambda(6)-thia-1-aza-bicyclo[3.2.0]heptane-2-carboxylic acid] |  | 16 | 4 | 74 | 280 |  |  |
| C[C@]1(/C=C\C#N)[C@H](C(=O)O)N2C(=O)[C@@H](CO)[C@H]2S1(=O)=O [Example 2 (cis), (Z)-(2S,3S,5R,6R)-6-Hydroxymethyl-3-methyl-3-(3-nitrilo-propenyl)-4,4,7-trioxo-4-lambda(6)-thia-1-azabicyclo[3.2.0]heptane-2-carboxylic acid] |  | 4 | 8 | 19 | 270 |  |  |
| CON=C[C@@]1(C)[C@H](C(=O)O)N2C(=O)[C@@H](CO)[C@H]2S1(=O)=O [Example 3, (2S,3R,5R,6R)-6-Hydroxymethyl-3-(methoxyimino-methyl)-3-methyl-4,4,7-trioxo-4-lambda(6)-thia-1-aza-bicyclo[3.2.0]heptane-2-carboxylic acid] | 280 | 8 | 16 |  |  | 64 |  |
| CCN1CCN(C(=O)N[C@@H](C(=O)N[C@@H]2C(=O)N3[C@@H]2SC(C)(C)[C@@H]3C(=O)O)c2ccccc2)C(=O)C1=O [Piperacillin, reference compound] |  |  |  |  |  |  | MIC ([2]; Escherichia coli, read-out: MIC (μg/ml) E. coli): > 64 µg/mL; MIC ([3]; Serratia marcescens, strain GC4132, AmpC (Class C), piperacillin row, no inhibitor named, read-out: MIC (μg/ml) S. marcescens): 32 µg/mL |
| C[C@]1(Cn2ccnn2)C(C(=O)[O-])N2C(=O)[C@@H](CO)C2S1(=O)=O.[Na+] (some centres unmarked) [Example 1] |  |  |  |  |  | 6 | MIC (μg/ml; 1:1) E. coli ([2]; strain GC2847, TEM-1 (Class A)): 2^c μg/ml; MIC (μg/ml; 1:1) S. marcescens ([3]; strain GC2894, AmpC (Class C)): 16^e μg/ml |
